Legend:
[1] = xn = mol fraction of the nth substance listed; conditions: 293.15 K, 101 kPa, Liquid; for viscosity: Concentric cylinders viscometry
[2] = excess molar enthalpy (molar enthalpy of mixing); xn = mol fraction of the nth substance listed; conditions: 303 K, 101 kPa, Liquid, Calvet calorimetry
[3] = Liquid; for viscosity / mass density: 101.33 kPa; for viscosity: Concentric cylinders viscometry; for mass density: Vibrating tube method

COC(C)(C)C [2-methoxy-2-methylpropane] + ClC(Cl)Cl
x2 = 0
Conditions | excess molar enthalpy [kJ/mol] | mass density [kg/m3] | viscosity [mPa·s]
[1] | – | 739.9 | 0.333
[2] | 0 | – | –

ClC(Cl)Cl [trichloromethane]
[3]
Conditions | mass density [kg/m3] | vapor or sublimation pressure [kPa] | viscosity [mPa·s]
273.15 K | 1526 | – | 0.713
283.15 K | 1507.1 | – | 0.651
293.15 K | 1488.4 | – | 0.6
298.15 K | 1478.8 | – | 0.576
303.15 K | 1469.2 | 32.2 | 0.552
313.15 K | 1450 | – | 0.509
318.15 K | 1440 | – | 0.491

COC(C)(C)C [2-methoxy-2-methylpropane]
[3]
Conditions | mass density [kg/m3] | vapor or sublimation pressure [kPa] | viscosity [mPa·s]
273.15 K | 760.4 | – | 0.39
283.15 K | 750.1 | – | 0.36
286.5 K | – | 20 | –
291.3 K | – | 25 | –
293.15 K | 739.9 | – | 0.333
295.5 K | – | 30 | –
298.15 K | 734.4 | – | 0.319
299.2 K | – | 35 | –
302.5 K | – | 40 | –
303.15 K | 729.2 | 41 | 0.304
305.45 K | – | 45 | –
308.2 K | – | 50 | –
310.8 K | – | 55 | –
313.1 K | – | 60 | –
313.15 K | 718.5 | – | 0.278
315.3 K | – | 65 | –
317.4 K | – | 70 | –
319.3 K | – | 75 | –
321.1 K | – | 80 | –
322.9 K | – | 85 | –
324.5 K | – | 90 | –
325.4 K | – | 92.5 | –
326.2 K | – | 95 | –
326.9 K | – | 97.2 | –

ClC(Cl)Cl [trichloromethane] + COC(C)(C)C
Conditions | excess molar enthalpy [kJ/mol] | mass density [kg/m3] | viscosity [mPa·s]
[1], x1 = 0.0527 | – | 768.1 | 0.358
[1], x1 = 0.0834 | – | 785.4 | 0.372
[1], x1 = 0.1841 | – | 842.6 | 0.423
[1], x1 = 0.2714 | – | 895.6 | 0.47
[1], x1 = 0.358 | – | 951.5 | 0.514
[1], x1 = 0.4511 | – | 1015 | 0.56
[1], x1 = 0.546 | – | 1083.8 | 0.595
[1], x1 = 0.6303 | – | 1148.9 | 0.612
[1], x1 = 0.724 | – | 1225.9 | 0.62
[1], x1 = 0.8108 | – | 1302.9 | 0.618
[1], x1 = 0.8948 | – | 1381.1 | 0.613
[1], x1 = 0.9515 | – | 1437.9 | 0.609
[1], x1 = 1 | – | 1488.4 | 0.6
[2], x1 = 0.038 | -0.342 | – | –
[2], x1 = 0.068 | -0.664 | – | –
[2], x1 = 0.097 | -0.92 | – | –
[2], x1 = 0.101 | -1.02 | – | –
[2], x1 = 0.118 | -1.1 | – | –
[2], x1 = 0.154 | -1.2 | – | –
[2], x1 = 0.172 | -1.3 | – | –
[2], x1 = 0.219 | -1.6 | – | –
[2], x1 = 0.251 | -1.9 | – | –
[2], x1 = 0.39 | -2.1 | – | –
[2], x1 = 0.516 | -2.1 | – | –
[2], x1 = 0.669 | -1.8 | – | –
[2], x1 = 0.78 | -1.5 | – | –
[2], x1 = 0.864 | -0.8 | – | –
[2], x1 = 0.899 | -0.65 | – | –
[2], x1 = 0.931 | -0.48 | – | –
[2], x1 = 0.958 | -0.28 | – | –
[2], x1 = 0.986 | -0.15 | – | –
[2], x1 = 1 | 0 | – | –

From the NIST ThermoML archive (doi:10.1021/je100821g)
